Test results: PubChem BioAssay (NCI)
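GI50 is the concentration that inhibits growth by half. TGI is the concentration that stops growth completely.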

Columns and labels:
Experiment in all cases: inhibition of tumour cell growth, NCI panel, 384-well format
MALME-3M melanoma = tested on: MALME-3M melanoma
KM12 colon = tested on: KM12 colon
HT29 colon = tested on: HT29 colon
MDA-MB-468 breast = tested on: MDA-MB-468 breast
A498 renal = tested on: A498 renal
MCF7 breast = tested on: MCF7 breast
786-0 renal = tested on: 786-0 renal
SNB-75 CNS = tested on: SNB-75 CNS
SK-MEL-5 melanoma = tested on: SK-MEL-5 melanoma
DU-145 prostate = tested on: DU-145 prostate
M14 melanoma = tested on: M14 melanoma
T-47D breast = tested on: T-47D breast
OVCAR-4 ovarian = tested on: OVCAR-4 ovarian
UACC-257 melanoma = tested on: UACC-257 melanoma
RPMI-8226 leukemia = tested on: RPMI-8226 leukemia
BT-549 breast = tested on: BT-549 breast
HL-60(TB) leukemia = tested on: HL-60(TB) leukemia
UACC-62 melanoma = tested on: UACC-62 melanoma
UO-31 renal = tested on: UO-31 renal
SW-620 colon = tested on: SW-620 colon
ACHN renal = tested on: ACHN renal
RXF 393 renal = tested on: RXF 393 renal
SK-MEL-28 melanoma = tested on: SK-MEL-28 melanoma
HCT-116 colon = tested on: HCT-116 colon
CAKI-1 renal = tested on: CAKI-1 renal
LOX IMVI melanoma = tested on: LOX IMVI melanoma
HCC-2998 colon = tested on: HCC-2998 colon
SF-268 CNS = tested on: SF-268 CNS
HOP-62 NSCLC = tested on: HOP-62 NSCLC
TK-10 renal = tested on: TK-10 renal
PC-3 prostate = tested on: PC-3 prostate
EKVX NSCLC = tested on: EKVX NSCLC
SNB-19 CNS = tested on: SNB-19 CNS
U251 glioblastoma = tested on: U251 glioblastoma
HOP-92 NSCLC = tested on: HOP-92 NSCLC
A549 NSCLC = tested on: A549 NSCLC
HCT-15 colon = tested on: HCT-15 colon
IGROV1 ovarian = tested on: IGROV1 ovarian
NCI-H226 lung = tested on: NCI-H226 lung
NCI-H460 NSCLC = tested on: NCI-H460 NSCLC
NCI-H522 lung = tested on: NCI-H522 lung
NCI-H322M lung = tested on: NCI-H322M lung
OVCAR-3 ovarian = tested on: OVCAR-3 ovarian
CCRF-CEM leukemia = tested on: CCRF-CEM leukemia
OVCAR-5 ovarian = tested on: OVCAR-5 ovarian
SN12C renal = tested on: SN12C renal
SK-OV-3 ovarian = tested on: SK-OV-3 ovarian
HS 578T breast = tested on: HS 578T breast
MDA-MB-231 breast = tested on: MDA-MB-231 breast
MOLT-4 leukemia = tested on: MOLT-4 leukemia
SF-539 CNS = tested on: SF-539 CNS
OVCAR-8 ovarian = tested on: OVCAR-8 ovarian
SR leukemia = tested on: SR leukemia
SF-295 CNS = tested on: SF-295 CNS
NCI-H23 lung = tested on: NCI-H23 lung
COLO 205 colon = tested on: COLO 205 colon
NCI/ADR-RES ovarian = tested on: NCI/ADR-RES ovarian

CC(=O)c1nc(-c2ccc(C[C@@H](CNC(=O)CN(C)C)NC(=O)c3ccc(OC(C)C)c(Cl)c3)cc2)cn1C
GI50 (MALME-3M melanoma): 0.0613 µM | TGI (MALME-3M melanoma): 1.7 µM | GI50 (KM12 colon): 0.0139 µM | TGI (KM12 colon): 19.8 µM | GI50 (HT29 colon): 0.013 µM | TGI (HT29 colon): 0.06 µM | TGI (MDA-MB-468 breast): 0.0295 µM | GI50 (A498 renal): 0.039 µM | TGI (A498 renal): 19.4 µM | GI50 (MCF7 breast): 0.0601 µM | TGI (MCF7 breast): 18.2 µM | GI50 (786-0 renal): 0.0184 µM | TGI (786-0 renal): 14 µM | GI50 (SNB-75 CNS): 0.0558 µM | TGI (SNB-75 CNS): 15.8 µM | GI50 (SK-MEL-5 melanoma): 0.0254 µM | TGI (SK-MEL-5 melanoma): 1.18 µM | GI50 (DU-145 prostate): 0.0169 µM | TGI (DU-145 prostate): 15.9 µM | GI50 (M14 melanoma): 0.0174 µM | TGI (M14 melanoma): 0.0515 µM | GI50 (T-47D breast): 0.0227 µM | TGI (T-47D breast): 13.1 µM | GI50 (OVCAR-4 ovarian): 12.5 µM | TGI (OVCAR-4 ovarian): 25.1 µM | GI50 (UACC-257 melanoma): 0.0683 µM | TGI (UACC-257 melanoma): 1.76 µM | GI50 (RPMI-8226 leukemia): 0.0213 µM | TGI (RPMI-8226 leukemia): 0.0429 µM | GI50 (BT-549 breast): 0.0258 µM | TGI (BT-549 breast): 13.6 µM | GI50 (HL-60(TB) leukemia): 0.0149 µM | TGI (HL-60(TB) leukemia): 0.029 µM | GI50 (UACC-62 melanoma): 0.0161 µM | TGI (UACC-62 melanoma): 17.9 µM | GI50 (UO-31 renal): 0.823 µM | TGI (UO-31 renal): 20.9 µM | GI50 (SW-620 colon): 0.0473 µM | TGI (SW-620 colon): 20.6 µM | GI50 (ACHN renal): 11 µM | TGI (ACHN renal): 23.2 µM | GI50 (RXF 393 renal): 0.0192 µM | TGI (RXF 393 renal): 10.9 µM | GI50 (SK-MEL-28 melanoma): 1.13 µM | TGI (SK-MEL-28 melanoma): 7.5 µM | GI50 (HCT-116 colon): 0.0341 µM | TGI (HCT-116 colon): 15.1 µM | GI50 (CAKI-1 renal): 0.0454 µM | TGI (CAKI-1 renal): 16.5 µM | GI50 (LOX IMVI melanoma): 0.0628 µM | TGI (LOX IMVI melanoma): 18 µM | GI50 (HCC-2998 colon): 0.0181 µM | TGI (HCC-2998 colon): 6.86 µM | GI50 (SF-268 CNS): 0.0123 µM | TGI (SF-268 CNS): 0.0439 µM | GI50 (HOP-62 NSCLC): 0.0414 µM | TGI (HOP-62 NSCLC): 20.7 µM | GI50 (TK-10 renal): 10.2 µM | TGI (TK-10 renal): 21.9 µM | GI50 (PC-3 prostate): 0.0314 µM | TGI (PC-3 prostate): 19.1 µM | GI50 (EKVX NSCLC): 0.0241 µM | TGI (EKVX NSCLC): 17.3 µM | GI50 (SNB-19 CNS): 0.0145 µM | TGI (SNB-19 CNS): 21.5 µM | GI50 (U251 glioblastoma): 0.0162 µM | TGI (U251 glioblastoma): 16.9 µM | GI50 (HOP-92 NSCLC): 1.82 µM | TGI (HOP-92 NSCLC): 18.2 µM | GI50 (A549 NSCLC): 0.0367 µM | TGI (A549 NSCLC): 16.5 µM | GI50 (HCT-15 colon): 0.0471 µM | TGI (HCT-15 colon): 16.1 µM | GI50 (IGROV1 ovarian): 0.0541 µM | TGI (IGROV1 ovarian): 20.4 µM | GI50 (NCI-H226 lung): 12.2 µM | TGI (NCI-H226 lung): 24.6 µM

COC(=O)N[C@@H](C)CNc1nccc(-c2cn(C(C)C)nc2-c2cc(Cl)cc(NS(C)(=O)=O)c2F)n1
GI50 (NCI-H460 NSCLC): 32.5 µM | TGI (NCI-H460 NSCLC): > 100 µM | GI50 (NCI-H522 lung): 3.91 µM | TGI (NCI-H522 lung): 97.9 µM | GI50 (MALME-3M melanoma): < 0.01 µM | TGI (MALME-3M melanoma): < 0.01 µM | GI50 (KM12 colon): 36.5 µM | TGI (KM12 colon): > 100 µM | GI50 (NCI-H322M lung): 6.15 µM | TGI (NCI-H322M lung): > 95.8 µM | GI50 (HT29 colon): < 0.01 µM | TGI (HT29 colon): 23.6 µM | GI50 (MDA-MB-468 breast): 11.5 µM | TGI (MDA-MB-468 breast): > 100 µM | GI50 (A498 renal): 1.13 µM | TGI (A498 renal): > 100 µM | GI50 (MCF7 breast): > 100 µM | TGI (MCF7 breast): > 100 µM | GI50 (786-0 renal): 7.06 µM | TGI (786-0 renal): > 73.3 µM | GI50 (SNB-75 CNS): 14.8 µM | TGI (SNB-75 CNS): > 100 µM | GI50 (OVCAR-3 ovarian): 48.8 µM | TGI (OVCAR-3 ovarian): > 100 µM | GI50 (CCRF-CEM leukemia): 42.2 µM | TGI (CCRF-CEM leukemia): > 100 µM | GI50 (OVCAR-5 ovarian): 33.2 µM | TGI (OVCAR-5 ovarian): > 100 µM | GI50 (DU-145 prostate): 6.7 µM | TGI (DU-145 prostate): > 100 µM | GI50 (M14 melanoma): < 0.01 µM | TGI (M14 melanoma): < 0.0175 µM | GI50 (T-47D breast): > 20 µM | TGI (T-47D breast): > 100 µM | GI50 (OVCAR-4 ovarian): > 100 µM | TGI (OVCAR-4 ovarian): > 100 µM | GI50 (RPMI-8226 leukemia): > 100 µM | TGI (RPMI-8226 leukemia): > 100 µM | GI50 (BT-549 breast): 38.1 µM | TGI (BT-549 breast): > 100 µM | GI50 (SN12C renal): 14.9 µM | TGI (SN12C renal): > 100 µM | GI50 (SK-OV-3 ovarian): 0.806 µM | TGI (SK-OV-3 ovarian): > 100 µM | GI50 (HL-60(TB) leukemia): 2.06 µM | TGI (HL-60(TB) leukemia): 6.91 µM | GI50 (UACC-62 melanoma): < 0.01 µM | TGI (UACC-62 melanoma): < 0.01 µM | GI50 (UO-31 renal): 6.96 µM | TGI (UO-31 renal): > 100 µM | GI50 (SW-620 colon): 6.22 µM | TGI (SW-620 colon): > 76.8 µM | GI50 (ACHN renal): 3.54 µM | TGI (ACHN renal): > 100 µM | GI50 (HS 578T breast): 14.7 µM | TGI (HS 578T breast): 40.8 µM | GI50 (RXF 393 renal): 6.32 µM | TGI (RXF 393 renal): 34.9 µM | GI50 (SK-MEL-28 melanoma): < 0.01 µM | TGI (SK-MEL-28 melanoma): < 0.01 µM | GI50 (MDA-MB-231 breast): 3.17 µM | TGI (MDA-MB-231 breast): 40.2 µM | GI50 (HCT-116 colon): 1.92 µM | TGI (HCT-116 colon): > 71.9 µM | GI50 (CAKI-1 renal): 0.728 µM | TGI (CAKI-1 renal): > 47.9 µM | GI50 (LOX IMVI melanoma): 0.498 µM | TGI (LOX IMVI melanoma): > 61.2 µM | GI50 (HCC-2998 colon): 11.9 µM | TGI (HCC-2998 colon): 39.7 µM | GI50 (MOLT-4 leukemia): 29.6 µM | TGI (MOLT-4 leukemia): > 100 µM | GI50 (SF-268 CNS): > 84.8 µM | TGI (SF-268 CNS): > 100 µM | GI50 (HOP-62 NSCLC): 61.9 µM | TGI (HOP-62 NSCLC): > 100 µM | GI50 (SF-539 CNS): 43.3 µM | TGI (SF-539 CNS): > 100 µM | GI50 (OVCAR-8 ovarian): 38.2 µM | TGI (OVCAR-8 ovarian): > 100 µM | GI50 (TK-10 renal): 20.7 µM | TGI (TK-10 renal): > 100 µM | GI50 (SR leukemia): 6.45 µM | TGI (SR leukemia): 20.6 µM | GI50 (PC-3 prostate): 70.9 µM | TGI (PC-3 prostate): > 100 µM | GI50 (EKVX NSCLC): 13.8 µM | TGI (EKVX NSCLC): > 100 µM | GI50 (SNB-19 CNS): > 100 µM | TGI (SNB-19 CNS): > 100 µM | GI50 (U251 glioblastoma): 17.2 µM | TGI (U251 glioblastoma): 65.9 µM | GI50 (HOP-92 NSCLC): 7.13 µM | TGI (HOP-92 NSCLC): > 100 µM | GI50 (A549 NSCLC): 16.3 µM | TGI (A549 NSCLC): > 92.6 µM | GI50 (HCT-15 colon): 9.03 µM | TGI (HCT-15 colon): > 100 µM | GI50 (IGROV1 ovarian): 0.929 µM | TGI (IGROV1 ovarian): > 100 µM | GI50 (SF-295 CNS): 97.6 µM | TGI (SF-295 CNS): > 100 µM | GI50 (NCI-H23 lung): 4.15 µM | TGI (NCI-H23 lung): > 100 µM | GI50 (COLO 205 colon): < 0.01 µM | GI50 (NCI-H226 lung): 37 µM | TGI (NCI-H226 lung): > 100 µM | GI50 (NCI/ADR-RES ovarian): > 100 µM | TGI (NCI/ADR-RES ovarian): > 100 µM
